Measured values published in patent EP4467640A1, “MICROORGANISM AND METHOD FOR THE IMPROVED PRODUCTION OF CYSTEINE AND/OR DERIVATIVES THEREOF” (Metabolic Explorer, priority 2023, dated 2024).

Key:
[1] = biological target: O-phosphoserine sulfhydrylase from Geobacter sulfurreducens (OPSSgsu), SEQ ID NO: 2 (Geobacter sulfurreducens, UniProt Q747V7); assay: O-phosphoserine sulfhydrylase (OPSS) activity, cysteine formation (Gaitonde method), kinetic parameters of purified enzyme; type: biochemical; conditions: pH 7.5, 30°C; read-out: Km (Na2S)
[2] = biological target: O-phosphoserine sulfhydrylase from Rhodothermus marinus (OPSSrma), SEQ ID NO: 4 (Rhodothermus marinus, UniProt D0MJA5); assay: as above; type: biochemical, Rhodothermus marinus (strain ATCC 43812 / DSM 4252 / R-10); conditions: pH 7.5, 30°C; read-out: Km (Na2S)
[3] = biological target: O-phosphoserine sulfhydrylase from Mycolicibacterium smegmatis (OPSSmsm), SEQ ID NO: 104 (Mycolicibacterium smegmatis, UniProt A0R1X2); assay: as above; type: biochemical, Mycolicibacterium smegmatis (strain ATCC 700084 / mc(2)155)
O-phosphoserine sulfhydrylase from Mycolicibacterium smegmatis (OPSSmsm), SEQ ID NO: 104, sequence (A0R1X2 1-323): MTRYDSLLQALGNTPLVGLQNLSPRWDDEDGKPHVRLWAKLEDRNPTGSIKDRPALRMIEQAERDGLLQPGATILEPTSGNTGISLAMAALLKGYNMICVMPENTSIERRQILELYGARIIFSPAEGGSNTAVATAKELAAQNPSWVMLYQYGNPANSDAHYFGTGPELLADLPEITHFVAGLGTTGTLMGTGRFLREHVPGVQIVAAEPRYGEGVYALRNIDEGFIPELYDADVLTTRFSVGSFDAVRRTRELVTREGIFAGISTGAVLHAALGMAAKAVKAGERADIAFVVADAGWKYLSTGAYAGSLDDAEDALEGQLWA

[4] = test system: O-phosphoserine sulfhydrylase from Dethiobacter alkaliphilus (OPSSdal), SEQ ID NO: 106; assay: as above; type: biochemical, Dethiobacter alkaliphilus AHT 1
Description: This reaction solution, except the enzymes, were incubated at 30°C for 10 min. After then, 0.5 to 1 µg of purified OPSS was added to the reaction solution, incubated at 30°C. 100 µl of the enzyme reaction solutions were taken after 5 min, 10 min, 15 min and mixed with 50 µl cold 1.5 M TCA to stop the enzymatic reaction. The cysteine concentrations in the enzyme reaction solution were quantified by measuring absorbance at OD560 nm according to Gaitonde method (Gaitonde,M.K. (1967), Biochem. J. 104, 627-633).
Kinetic parameters were determined using Sigmaplot.

[5] = substrate: N[C@@H](COP(=O)(O)O)C(=O)O; assay: purified protein, by the assay type; conditions: fixed Na2S 50 mM, O-phosphoserine 0.5-100 mM, 100 mM Hepes pH 7.5, 30°C

Na2S was tested, and the Km [1] was 16 mM, the Km [2] was 13 mM and the Km ([3]; pH 7.5, 30°C, read-out: Km (Na2S)) was 1.4 mM.

`N[C@@H](COP(=O)(O)O)C(=O)O` [OPS, O-phosphoserine] showed a kcat ([4]; calculated from the O-phosphoserine saturation curves, Na2S 50 mM, pH 7.5, 30°C) of 19 s⁻¹, a Km ([4]; read-out: Km (OPS), fixed Na2S 50 mM, O-phosphoserine 0.5-100 mM, 100 mM Hepes pH 7.5, 30°C) of 17 mM and an inhibition at 20000 µM ([3]; read-out: activity lost (inhibition by O-Phosphoserine)) of 50%.

B1: O-phosphoserine sulfhydrylase from Rhodothermus marinus (OPSSrma), SEQ ID NO: 4 (Rhodothermus marinus DSM 4252) (protein)
chain: MFAETLQTTTNTRPLSGTELIRAIGHTPLIRLRRVARHLPETVAVYVKAEHLNPGGSVKDRPALRMVLEGLRSGALREGRALIDATSGNTGIAYAMLGAALGFPVTLAMPANASPERKRILKAYGAELILTDPMEGTDGAQRYVRELVQQEPDRYFYPDQYNNDANWRAHYEGTGIEILEQTGGRVTHFVAGLGTTGTFVGVSRRLKAHNPAIRCYALQPDSPLHGLEGLKHLETAIVPGIYDPSLVDEHLSCSTEEAFEMTRRLAREEGLFVGPSSGANVAAALHIAEQLDRGVVVTVLCDTGARYLSEPFWEETP
Molecule B1 has a Km ([5]; other: OPSSrma) of 6 mM and a kcat ([5]; other: OPSSrma) of 47 s⁻¹.

B2: O-phosphoserine sulfhydrylase from Geobacter sulfurreducens (OPSSgsu), SEQ ID NO: 2 (Geobacter sulfurreducens PCA) (protein)
chain: MEHPPFSLAGSIGATPLVELRHLNPNPRVRILAKLEGNNVGGSVKDRPALYMLAKAEESGELVPEKTILEPTSGNTGIALAMLGTVKGYRVKLVMPACVSLERRAVLEAYGAELVLSPHDEATDGAIRLAHRILEEEPDRYYMPNQYANPNNPLAHYETTAPEIFRDTGGAVDFFVAGMGTGGTLMGTSRYFREKKPSVRIVGVEPRLGHKVQGLKNMQEAIVPPIYHPEALDLKLTVHDEPAFDTARELAAREGLFVGMSSGAAVAGAVQVARDAPAGSTIVVLLPDRGDRYLSTVLFRSVCGKCPP
B2 was tested, and the Km ([5]; other: OPSSgsu) was 16 mM and the kcat ([5]; other: OPSSgsu) was 58 s⁻¹.
